{"source": "patent US6787564B2", "about": "“Optically active clausenamides, process of the preparation thereof, pharmaceutical composition containing the same and their medical use” (Institute of Materia Medica, Chinese Academy of Medical …, priority 2002, dated 2004)", "key": {"mGlu receptor": {"test_system": "mGlu receptor", "test": "effect of mGlu antagonist on LTP in hippocampal DG in vivo", "design": "species or system rats", "description": "The rats were anaesthetized with urethane carbonate.\n3. Glutamate, the most abundant excitatory neurotransmitter in the CNS, released from presynaptic site and activated a variety of postsynaptic receptor, and then potentiated synaptic transmission. mGlu R (metabotropic glutamate receptor) indirectly regulates signaling and activats various second messenger cascades."}, "A β 25-35 treated rats": {"test_system": "A β 25-35 treated rats", "test": "Morris water maze, A β 25-35 induced impairment of memory", "assay_type": "in vivo", "description": "Pathological features of Alzheimer's disease (AD) include extensive neuronal loss and the presence of numerous neurofibrillary tangles and senile plaques in the brain. The senile plaques contain amyloid fibrils derived from a 39-43 amino acids peptide referred to as β-amyloid or A β which can produce neurotoxicity. A β 25-35 poccesses the similar neurotoxicity and ability of self-aggregation as A β 1-42. Administrated aggregated A β 25-35 into rat's lateral cerebral ventricle induced memory impairment in Morris water maze.\nWith increasing of training days, the initial heading angle became small. On the 3th day, the initial heading angle of A β group was larger than control. […] (see Tab.3)\nThere are four strategies for finding platform in Morris water maze: random, circle, taxis and line. In the beginning of training the search strategies for finding target is mainly circle and random, with the increasing of training, the percentage of the two strategies declined gradually, Beginning from the 3th day, declining speed in control and (−) clausenamide group was faster than A β,(+) clausenamide and piracetam groups."}, "rats": {"test_system": "rats", "test": "mossy fiber sprouting in fascia dentata and hippocampal CA3 region", "assay_type": "in vivo", "settings": "8 and 40 mg·kg^−1 orally daily for 10 days; adult rat", "description": "2. […] This is morphological basis for levoclausenamide to incnease synaptic transmission (see FIGS. 1 and 2)."}, "[1]": {"test_system": "dentate gyrus granule cells", "test": "basal synaptic transmission / LTP in dentate gyrus of hippocampus in anesthetized rats (population spike amplitude)", "assay_type": "in vivo", "settings": "icv", "description": "Drugs or vehicle injection were delivered via cannula in the lateral cerebral ventricle at final concentration of 2×10^−6 mol/L. The population spike (PS) amplitude was employed as an indication of the level of excitation of the granular cell population in the dentate gyrus. To obtain this measurement, an evoked response was generated in the dentate gyrus granule cell layer by stimulating the pp at low freguency (0.033 Hz) with. single square wave pulses of 0.15 ms duration The LTP formation must accord the following creteria: The PS amplitude increased is over 30% and this high PS amplitude can persist for 40 min."}, "BDNF": {"test_system": "BDNF", "test": "BDNF protein expression in cortical neurons and hippocampal pyramide cells", "assay_type": "in vivo, rats", "settings": "8, 40 mg·kg^−1 orally daily for 10 days"}, "[2]": {"test_system": "β-AP (25-35)-treated rats", "test": "one trial passive avoidance of β-AP (25-35)-treated rats", "assay_type": "in vivo", "settings": "n = 9"}, "[3]": {"test_system": "dentate gyrus of hippocampus", "test": "induction of LTP in hippocampal of rat (population spike amplitude)", "assay_type": "in vivo, SD rats", "settings": "I.C.V.; means ± SD", "description": "Adult male SD rats were anesthetized to maintain a surgical level. A stainless steel cannula-recording electrode was placed in DG (dentate gyrus) of hippocampus using a stereotaxic instrument. The combination of cannula-recording electrode was constructed by insulating the outside of the cannula, except at the tip and top. In the top noninsulated area, a stainless steel wire was wrapped around the cannula and connected to the amplifier via an amphenol connector. The four pairs optically active clausenamides shown in table 9 was delivered by I.C.V. Responses were evoked via direct stimulation of the performant path (PP) using a stainless steel bipolar stimulating electrode. Constant current stimulation provided by a stimulator was delivered to the stimulating electrode through a Stimulus Isolation Unit.\nThe stimulating electrode was adjusted until a characteristic EPSP was observed under constant current. The evoked responses were amplified on a series alternating current preamplifier, using a microcomputer, and then stored for off-line analysis using DataWave software. The current intensity that elicited a 50% maximal response in each animal was determined and used for all subsequent stimulation. To measure treatment effects, responses were evoked once every 30 sec throughout the entire experiment, and population spike amplitude(PSA) were calculated."}}}
{"compound": "CC(N)(C(=O)O)c1ccc(C(=O)O)cc1", "note": "(racemic) [(±) MCPG, (±)-α-methyl-4-carboxyphenylglycine]", "values": [{"measurement": "induction of LTP induced by HFS and levoclausenamide", "setting": "mGlu receptor; 10 μmol, icv", "value": "inhibited the induction of LTP"}, {"measurement": "established LTP", "setting": "mGlu receptor; given 15 min after HFS or levoclausenamide", "value": "reversed the established LTP"}]}
{"compound": "(+) clausenamide [reference compound]", "values": [{"measurement": "initial heading angle on the 3th day (in words)", "setting": "A β 25-35 treated rats; (−),(+) clausenamide 8 and 40 mg.kg^−1, piracetam 400 mg·kg^−1, vs A β group", "value": "showed no improving effects"}, {"measurement": "latency for finding the platform, 3th to 5th day", "setting": "A β 25-35 treated rats; (−),(+) clausenamide 8 and 40 mg·kg^−1, piracetam 400 mg.kg^−1, vs A β group", "value": "showed no effect"}, {"measurement": "initial heading angle, training day 1", "setting": "A β 25-35 treated rats; A β 25-35 + drug at 8 mg/kg", "value": "99.4 ± 31.7"}, {"measurement": "initial heading angle, training day 2", "setting": "A β 25-35 treated rats; A β 25-35 + drug at 8 mg/kg", "value": "93.5 ± 29.6"}, {"measurement": "initial heading angle, training day 3", "setting": "A β 25-35 treated rats; A β 25-35 + drug at 8 mg/kg", "value": "82.1 ± 26.7"}, {"measurement": "initial heading angle, training day 4", "setting": "A β 25-35 treated rats; A β 25-35 + drug at 8 mg/kg", "value": "70.2 ± 21.5"}, {"measurement": "initial heading angle, training day 5", "setting": "A β 25-35 treated rats; A β 25-35 + drug at 8 mg/kg", "value": "59.2 ± 18.3"}, {"measurement": "initial heading angle, training day 1", "setting": "A β 25-35 treated rats; A β 25-35 + drug at 40 mg/kg", "value": "112.4 ± 32.8"}, {"measurement": "initial heading angle, training day 2", "setting": "A β 25-35 treated rats; A β 25-35 + drug at 40 mg/kg", "value": "102.5 ± 28.7"}, {"measurement": "initial heading angle, training day 3", "setting": "A β 25-35 treated rats; A β 25-35 + drug at 40 mg/kg", "value": "84.2 ± 22.5"}, {"measurement": "initial heading angle, training day 4", "setting": "A β 25-35 treated rats; A β 25-35 + drug at 40 mg/kg", "value": "83.1 ± 26.5"}, {"measurement": "initial heading angle, training day 5", "setting": "A β 25-35 treated rats; A β 25-35 + drug at 40 mg/kg", "value": "65.4 ± 20.8"}, {"measurement": "mossy fiber sprouting in the fascia dentate and stratum lucidum", "setting": "rats", "value": "no significant effect"}, {"measurement": "PS % at 15′, in comparison with control (vehicle) group", "setting": "[1]; 2×10^−6 mol/L", "value": "−2.7", "unit": "%"}, {"measurement": "PS % at 30′, in comparison with before drug", "setting": "[1]; 2×10^−6 mol/L", "value": "−5.9", "unit": "%"}, {"measurement": "PS % at 30′, in comparison with control (vehicle) group", "setting": "[1]; 2×10^−6 mol/L", "value": "−12.0", "unit": "%"}, {"measurement": "PS % at 45′, in comparison with before drug", "setting": "[1]; 2×10^−6 mol/L", "value": "−12.9", "unit": "%"}, {"measurement": "PS % at 45′, in comparison with control (vehicle) group", "setting": "[1]; 2×10^−6 mol/L", "value": "−20.0", "unit": "%"}, {"measurement": "PS % at 60′, in comparison with before drug", "setting": "[1]; 2×10^−6 mol/L", "value": "−14.9", "unit": "%"}, {"measurement": "PS % at 60′, in comparison with control (vehicle) group", "setting": "[1]; 2×10^−6 mol/L", "value": "−23.2", "unit": "%"}, {"measurement": "PS amplitude 30′ after drug", "setting": "[1]; 2×10^−6 mol/L, control 108 ± 7", "value": "95 ± 9"}, {"measurement": "PS amplitude 45′ after drug", "setting": "[1]; 2×10^−6 mol/L, control 110 ± 10", "value": "88 ± 15"}, {"measurement": "PS amplitude 60′ after drug", "setting": "[1]; 2×10^−6 mol/L, control 112 ± 7", "value": "86 ± 18"}, {"measurement": "PS amplitude 15′ after drug", "setting": "[1]; final concentration 2×10^−6 mol/L, control 110 ± 9", "value": "107 ± 8"}, {"measurement": "BDNF protein expression in the cortical neurons and pyramide cells in the hippocampus", "setting": "BDNF", "value": "slightly increasing effect only at a dose of 40 mg·kg^−1"}, {"measurement": "Number of error, Acquisition", "setting": "[2]; β-AP-treated + drug 8 mg/kg", "value": "0.8 ± 0.38"}, {"measurement": "Number of error, Training", "setting": "[2]; β-AP-treated + drug 8 mg/kg", "value": "3.3 ± 0.42"}, {"measurement": "Number of error, Acquisition", "setting": "[2]; β-AP-treated + drug 40 mg/kg", "value": "1.1 ± 0.19"}, {"measurement": "Number of error, Training", "setting": "[2]; β-AP-treated + drug 40 mg/kg", "value": "3.9 ± 2.3"}, {"measurement": "PSA (%), 15 min", "setting": "[3]", "value": "90.6 ± 0.3", "unit": "%"}, {"measurement": "PSA (%), 30 min", "setting": "[3]", "value": "110.1 ± 13.1", "unit": "%"}, {"measurement": "PSA (%), 60 min", "setting": "[3]", "value": "106.4 ± 4.1", "unit": "%"}]}
